pKi: −log10 of the molar value.
Tests used:
adenosine A2 receptor = assay: Receptor affinity (radioligand binding), A2, [3H]NECA; set-up: species or system bovine / guinea pig; conditions: room temperature, 1 hour
Description: (§1) 1. Receptor Affinity Experiments (Radioligand Binding)
(§2) Tissues (bovine caudate, guinea pig cortex, guinea pig striatum) were homogenized with a Brinkman polytron and the membranes were collected by centrifugation at 40,000×g at 4° C. for 10 min. The membranes were washed by resuspension and centrifugation, resuspended, and incubated in the presence of 1 U/ml adenosine deaminase for 15-30 min. at 37° C. The membranes were diluted, centrifuged once, and resuspended to a final concentration of 0.5-2 mg protein/ml. Adenosine deaminase (0.1 U/ml) was included in the final resuspension. Assays were initiated by addition of membranes. The compounds of the present invention were subjected to the following experimental conditions: A1 determinations/incubated with [^3 H]CHA at room temperature for 2 hours, A2 determinations/incubated with [^3 H]NECA at room temperature for 1 hour. Assays were terminated by filtration, and the filters were counted in scintillation counters.

adenosine A1 receptor [1] = target: T1, adenosine A1 receptor (Cavia porcellus, UniProt P47745); assay: A1 in vitro functional test: negative inotropic response, left atria, antagonism of NECA; type: cell-based, guinea pig; conditions: for Kb: guinea pig left atria, electrically evoked twitch, NECA agonist, 31° C, Schild plot, read-out: A1 KB (antagonist dissociation constant); for Selectivity Ratio (A2 KB /A1 KB): functional
T1 construct: from tissue; host or cells: isolated guinea pig left atria
T1 sequence (P47745 1-326): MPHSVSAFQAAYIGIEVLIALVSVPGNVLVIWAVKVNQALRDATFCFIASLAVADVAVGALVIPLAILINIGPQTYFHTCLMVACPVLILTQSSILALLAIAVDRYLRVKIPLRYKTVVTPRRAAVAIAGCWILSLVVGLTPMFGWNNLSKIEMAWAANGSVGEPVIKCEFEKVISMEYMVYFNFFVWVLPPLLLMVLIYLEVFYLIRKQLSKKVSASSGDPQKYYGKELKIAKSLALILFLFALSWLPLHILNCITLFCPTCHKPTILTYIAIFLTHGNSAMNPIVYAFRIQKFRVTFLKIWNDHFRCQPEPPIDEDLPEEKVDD
Description: 2. Adenosine--A1 /A2 In Vitro Functional Tests
(A1 Assay: Negative inotropic response)-Guinea pig left atria were placed in organ baths filled with Krebs Henseleit solution gassed with 95% O2 and 5% CO2 and maintained at a temperature of 31° C. An initial resting tension of 1 gm. was placed on each tissue, which was allowed to equilibrate. Atria were stimulated electrically to produce twitch responses. A dose-response curve for the inhibition of the electrically-evoked twitch response was obtained by cumulative addition of the adenosine agonist […]. After the washout of the tissue, a fixed concentration of test compound was added and the tissue allowed to equilibrate for 1 hr. before cumulative additions of the adenosine agonist 5'-N-ethylcarboxamidoadenosine (NECA) to generate a new dose response curve. This procedure was repeated with different fixed concentrations of test compounds to generate a family of dose response curves. Schild plots were constructed from the resultant concentration-effect curves, and KB (antagonist dissociation constant) values were obtained. The results (see Table VII) are expressed as KB values (concentration of test compound such that one-half of the tissue adenosine receptor population is occupied by the test compound).

adenosine A1 receptor [2] = target: T2, adenosine A1 receptor (Bos taurus, UniProt P28190); assay: Receptor affinity (radioligand binding), A1, [3H]CHA; set-up: species or system bovine; conditions: for pKi: [3H]CHA, room temperature, 2 hours, tissues listed: bovine caudate, guinea pig cortex, guinea pig striatum (only Example 13 marked guinea pig); for Selectivity Ratio (A2 Ki /A1 Ki): radioligand binding
T2 construct: were homogenized with a Brinkman polytron and the membranes were collected by centrifugation; from tissue; host or cells: bovine caudate membranes
T2 sequence (P28190 1-326): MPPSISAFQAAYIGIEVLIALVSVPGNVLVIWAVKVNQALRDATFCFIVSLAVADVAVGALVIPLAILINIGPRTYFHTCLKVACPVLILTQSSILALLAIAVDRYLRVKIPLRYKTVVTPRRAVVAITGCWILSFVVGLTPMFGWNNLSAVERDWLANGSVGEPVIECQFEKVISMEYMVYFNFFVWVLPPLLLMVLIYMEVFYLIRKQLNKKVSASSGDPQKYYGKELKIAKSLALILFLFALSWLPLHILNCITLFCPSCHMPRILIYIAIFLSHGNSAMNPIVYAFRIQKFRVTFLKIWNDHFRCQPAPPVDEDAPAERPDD
Description: as §1, §2

pKi (adenosine A2 receptor)	Kb (adenosine A1 receptor [1]) [nM]	pKi (adenosine A1 receptor [2])	Selectivity Ratio (A2 Ki /A1 Ki) (adenosine A1 receptor [2])	Selectivity Ratio (A2 KB /A1 KB) (adenosine A1 receptor [1])	Structure (SMILES)
5.25	1120	8.05	631		COc1ccc2c(c1)[C@H]1C[C@H](Nc3ncnc4c3ncn4C)[C@@H]2C1 (relative stereo) [Example 40]
4.96	2080	7.34	241	> 152	Cn1cnc2c(NC3CCCCC3)ncnc21 [Example 47, N^6-cyclohexyl-9-methyladenine, reference compound]
6.21	110	8.43	166	362	CN(C)c1nc2c(N[C@H]3C[C@H]4CC[C@@H]3C4)ncnc2n1C (relative stereo) [Example 5, (+)-N^6-(endo-2'-norbornyl)-8-dimethylamino-9-methyladenine]
6.46	115	8.46	100		Cn1c(Br)nc2c(N[C@H]3C[C@H]4CC(=O)[C@@H]3C4)ncnc21 (relative stereo) [Example 19]
4.81	28800	6.33	33		Cn1cnc2c(N[C@@H]3C[C@H]4C[C@@H]3c3ccccc34)ncnc21 (relative stereo) [Example 39]
5.23	1580	7.75	331		Cn1cnc2c(N[C@H]3C[C@H]4C[C@@H]3c3ccccc34)ncnc21 (relative stereo) [Example 38]
< 5.00	6030	7.29	> 195		Cn1cnc2c(N[C@H]3C[C@H]4C[C@@H]3[C@@H](O)C4)ncnc21 (relative stereo) [Example 32]
4.50	3800	7.07	371		Cn1cnc2c(N[C@H]3C[C@@H]4C[C@H]3[C@@H](O)C4)ncnc21 (relative stereo) [Example 23]
4.67	4680	6.85	152		Cn1cnc2c(N[C@H]3C[C@@H]4C[C@H]3[C@H](O)C4)ncnc21 (relative stereo) [Example 24]
5.21	550	8.00	617	36	Cn1cnc2c(N[C@@H]3C[C@@H]4CC[C@H]3C4)ncnc21 (relative stereo) [Example 49, N^6-(endo-2-norbornyl)-9-methyladenine, reference compound]
6.48	117	9.00	331		CCN(CC)c1nc2c(N[C@H]3C[C@H]4CC[C@@H]3C4)ncnc2n1C (relative stereo) [Example 10, (±)-N^6-(endo-2'-norbornyl)-8-diethylamino-9-methyladenine]
6.40	65	8.22	66	> 1540	CSc1nc2c(N[C@H]3C[C@H]4CC[C@@H]3C4)ncnc2n1C (relative stereo) [Example 3, (±)-N^6-[endo-2'-norbornyl]-8-methylthio-9-methyladenine]
< 5.00	64600	6.68	> 48		COc1ccc2c(c1)[C@@H]1C[C@H]2[C@H](Nc2ncnc3c2ncn3C)C1 (relative stereo) [Example 41]
5.45	257	7.89	275	> 390	Cn1c(C(N)=O)nc2c(N[C@H]3C[C@H]4CC[C@@H]3C4)ncnc21 (relative stereo) [Example 2, (±)-N^6-(endo-2'-norbornyl)-8-amido-9-methyladenine]
6.20	275	8.70	316		Cn1cnc2c(N[C@@H]3C[C@H]4C[C@@H]3c3ccc(O)cc34)ncnc21 (relative stereo) [Example 36, (±)-N^6-[endo-2'-(5',6'-(6"-hydroxy)benzo)norbornyl]-9-methyladenine]
6.56	72	8.56	100		CN(C)c1nc2c(N[C@H]3C[C@@H]4C[C@H]3C[C@@H]4O)ncnc2n1C (relative stereo) [Example 18, (±)-N^6-[endo-2'-(endo-5'-hydroxy)norbornyl]-8-dimethylamino-9-methyladenine]
5.50	309	7.72	165	324	Cn1cnc2c(N[C@H]3C[C@@H]4C[C@H]3C[C@@H]4O)ncnc21 (relative stereo) [Example 21, (±)-N^6-[endo-2'-(endo-5'-hydroxy)-norbornyl]-9-methyladenine]
5.85	81	8.41	362	46	Cn1c(C#N)nc2c(N[C@H]3C[C@H]4CC[C@@H]3C4)ncnc21 (relative stereo) [Example 1, (±)-N^6-(endo-2'-norbornyl)-8-cyano-9-methyladenine]
5.30	759	8.00	501	> 395	Cn1cnc2c(NC3CCCC3)ncnc21 [Example 48, N^6-cyclopentyl-9-methyladenine, reference compound]
4.84	4070	6.98	137		Cn1cnc2c(N[C@H]3C[C@H]4C[C@@H]3C[C@H]4O)ncnc21 (relative stereo) [Example 31]
< 5.00	240	6.72	> 52		Cn1c(N2CCCCC2)nc2c(N[C@H]3C[C@H]4CC[C@@H]3C4)ncnc21 (relative stereo) [Example 20, (±)-N^6-(endo-2'-norbornyl)-8-piperidinyl-9-methyladenine]
5.87	501	8.21	219		CN(C)c1nc2c(NC3CCCC3)ncnc2n1C [Example 8, N^6-cyclopentyl-8-dimethylamino-9-methyladenine]
4.37	1310	6.44	1,176		Cn1cnc2c(N[C@H]3C[C@H]4C[C@@H]3C[C@@H]4O)ncnc21 (relative stereo) [Example 30, (±)-N^6-[exo-2',(exo-5'-hydroxy)-norbornyl]-9-methyladenine]
7.16	30	8.93	59	65	Cn1c(Br)nc2c(N[C@H]3C[C@@H]4C[C@H]3C[C@@H]4O)ncnc21 (relative stereo) [Example 17, (±)-N^6-[endo-2'-(endo-5'-hydroxy)norbornyl]-8-bromo-9-methyladenine]
6.44	71	8.60	145		CSc1nc2c(NC3CCCC3)ncnc2n1C [Example 12, N^6-cyclopentyl-8-methylthio-9-methyladenine]
4.67		6.60	85		CC(C)n1cnc2c(N[C@@H]3C[C@H]4C[C@@H]3CC4=O)ncnc21 (relative stereo) [Example 44]

— patent US5670501A, “N-substituted 9-alkyladenines” (Discovery Therapeutics, Inc., priority 1994, dated 1997)
